{
  "source": "patent US20020106416A1",
  "about": "“Composition for inhibition of H. influenzae and treatment of otitis media and sore throat” (priority 1996, published 2002)",
  "data": [
    {"experiment": "Clinical evaluation of HHT888-10 in patients with otitis media or sore throat", "type": "in vivo, human", "conditions": "sixth patient; initial treatment with Erythromycin, Bactrium, and Naproxen together", "method": "The extract powder prepared in Example IB of Pogostemon cablin (HHT888-10) was administered orally to a patient with recurrent otitis media at a dosage of 2 g twice a day ( total 4 gms per day) for 3 days.\nA sixth patient was treated for sore throat, headache and fever. […] On the fifth day, the patient was treated with HHT888-10 at 2 g b.i.d. p.o. for 2 days.", "values": [
      {"compound": "CC[C@H]1OC(=O)[C@H](C)[C@@H](O[C@H]2C[C@@](C)(OC)[C@@H](O)[C@H](C)O2)[C@H](C)[C@@H](O[C@@H]2O[C@H](C)C[C@H](N(C)C)[C@H]2O)[C@](C)(O)C[C@@H](C)C(=O)[C@H](C)[C@@H](O)[C@]1(C)O", "note": "[Erythromycin]", "fever and headache": "subsided", "sore throat": "became worse"},
      {"compound": "COc1ccc2cc([C@H](C)C(=O)O)ccc2c1", "note": "[Naproxen]", "fever and headache": "subsided", "sore throat": "became worse"},
      {"compound": "Bactrium", "fever and headache": "subsided", "sore throat": "became worse"}
    ]}
  ]
}
